Key:
Vero cells = assay: Cell viability assay (CCK-8) on Vero cells; type: cell-based, African green monkey; conditions: 24 h; for Cytotoxicity: CCK-8, tested up to 30 µM; for inhibition at 30 µM: Chlorocebus sabaeus, CCK-8, read-out: Inhibition rate of Vero cell at 30 μM
Experimental: African green monkey kidney (Vero) cells were cultured in Dulbecco’s modified Eagle’s medium (DMEM) supplemented with 100 U/mL penicillin, 100 μg/mL streptomycin, 1% nonessential amino acids (NEAAs), 1% GlutaMAX and 10% fetal bovine serum (FBS) at 37 °C in an atmosphere of 5% CO2. […] DMEM without a drug was used as a control. After 24 h of treatment, Cell Counting Kit-8 (CCK-8, CA1210, Solarbio) was used to determine cell viability at 450 nm via a Multiskan GO instrument.

T. gondii RH tachyzoites = assay: Screening for anti-T. gondii activity in vitro (plaque and qPCR assays); type: cell-based, Toxoplasma gondii; conditions: for inhibition of growth at 30 µM: Toxoplasma gondii, Vero, 24 h, RH tachyzoites in Vero cells, plaque and qPCR assays
Experimental: The anti-T. gondii activity of compounds NBZ001‒037 was examined via RT-PCR. Confluent Vero cells in 6-well plates were infected with 2 × 10^5 T. gondii RH tachyzoites per well, incubated for 6 h, and then washed twice with PBS to remove extracellular tachyzoites. The cell monolayers were incubated with DMEM (1% FBS) containing various concentrations of NBZ001‒037 for 24 h. Total genomic DNA from each sample was isolated with the DNAiso reagent (Takara), and the levels of the 529-bp repeat element of T. gondii were measured by qPCR. A plaque assay was used to evaluate the activity of the compounds. The detailed experimental procedures were described in previous studies.

| SMILES | Cytotoxicity (Vero cells) | inhibition at 30 µM (Vero cells) | inhibition of growth at 30 µM (T. gondii RH tachyzoites) | improved efficacy over NBZ022 (T. gondii RH tachyzoites; 30 μM screening, ortho-Cl versus NBZ022) |
| --- | --- | --- | --- | --- |
| Cc1ccc2[nH]c3c(C(=O)c4ccccc4Br)nccc3c2c1 [NBZ005] | > 30.00 µM | 43.9% | 33.9% | – |
| O=C(O)c1ccc2[nH]c3c(C(=O)c4ccccc4Cl)nccc3c2c1 [NBZ009] | > 30.00 µM | 15% | 32.1% | – |
| O=C(c1ccccc1Cl)c1nccc2c1[nH]c1ccccc12 [NBZ001] | > 30.00 µM | 24.2% | 31.3% | – |
| Cc1ccc(NC(=O)c2ccc3[nH]c4c(C(=O)c5ccccc5Cl)nccc4c3c2)cc1 [NBZ025] | > 30.00 µM | 3.96% | 32.6% | – |
| COc1ccc(NC(=O)c2ccc3[nH]c4c(C(=O)c5ccccc5Cl)nccc4c3c2)cc1 [NBZ028] | > 30.00 µM | 19.3% | – | – |
| Cc1ccc(NC(=O)c2ccc3[nH]c4c5[n+](ccc4c3c2)-c2ccccc2C5=O)cc1.[Cl-] [NBZ037, 13-oxo-9-(p-tolylcarbamoyl)-12,13-dihydropyrido[1,2-a:3,4-b’]diindol-5-ium chloride] | > 30.00 µM | 29.7% | – | – |
| O=C(c1ccccc1Br)c1nccc2c1[nH]c1ccccc12 [NBZ002] | > 30.00 µM | 27.2% | 42.2% | – |
| Cc1ccccc1NC(=O)c1ccc2[nH]c3c(C(=O)c4ccccc4Br)nccc3c2c1 [NBZ024] | > 30.00 µM | 24.4% | 3.45% | – |
| Cc1ccc(NC(=O)c2ccc3[nH]c4c(C(=O)c5ccccc5Br)nccc4c3c2)cc1 [NBZ026] | > 30.00 µM | 23.6% | 21.1% | – |
| CN(C)c1ccc(NC(=O)c2ccc3[nH]c4c(C(=O)c5ccccc5Cl)nccc4c3c2)cc1 [NBZ032] | > 30.00 µM | 16% | 73% | – |
| COc1ccc(C(=O)c2nccc3c2[nH]c2ccc(C)cc23)cc1 [NBZ008] | > 30.00 µM | 13.1% | 17.3% | – |
| Cc1ccc2[nH]c3c(C(=O)c4ccccc4Cl)nccc3c2c1 [NBZ004] | > 30.00 µM | 5.35% | 43.8% | – |
| NC(=O)c1ccc2[nH]c3c(C(=O)c4ccccc4Br)nccc3c2c1 [NBZ013] | > 30.00 µM | 11.2% | 34.5% | – |
| O=C(NC1CCCCC1)c1ccc2[nH]c3c(C(=O)c4ccccc4Br)nccc3c2c1 [NBZ015] | > 30.00 µM | 3.68% | 37.1% | – |
| O=C(O)c1ccc2[nH]c3c(C(=O)c4ccc(Br)cc4)nccc3c2c1 [NBZ011] | > 30.00 µM | 3.88% | > 50% | – |
| CN(C)c1cccc(NC(=O)c2ccc3[nH]c4c(C(=O)c5ccccc5Cl)nccc4c3c2)c1 [NBZ030] | > 30.00 µM | 12.8% | 69.2% | – |
| O=C(O)c1ccc2[nH]c3c(C(=O)c4ccccc4Br)nccc3c2c1 [NBZ010] | > 30.00 µM | 16.6% | 45.2% | – |

| SMILES | Cytotoxicity (Vero cells) | inhibition at 30 µM (Vero cells) | inhibition of growth at 30 µM (T. gondii RH tachyzoites) | improved efficacy over NBZ022 (T. gondii RH tachyzoites; 30 μM screening, ortho-Cl versus NBZ022) |
| --- | --- | --- | --- | --- |
| CN(C)c1ccc(NC(=O)c2ccc3[nH]c4c(C(=O)c5ccccc5Br)nccc4c3c2)cc1 [NBZ033] | > 30.00 µM | 11.2% | 14.3% | – |
| O=C(NCc1ccco1)c1ccc2[nH]c3c(C(=O)c4ccccc4Br)nccc3c2c1 [NBZ017] | > 30.00 µM | 10.8% | 43.4% | – |
| COc1ccccc1NC(=O)c1ccc2[nH]c3c(C(=O)c4ccccc4Cl)nccc3c2c1 [NBZ027, (2-Chlorobenzoyl)-N-(2-methoxyphenyl)-9H-pyrido[3,4-b]indole-6-carboxamide] | > 30.00 µM | 27.9% | – | – |
| Cc1ccc2[nH]c3c(C(=O)c4ccc(Br)cc4)nccc3c2c1 [NBZ007] | > 30.00 µM | 13.5% | 31.2% | – |
| CN(C)c1cccc(NC(=O)c2ccc3[nH]c4c(C(=O)c5ccccc5Br)nccc4c3c2)c1 [NBZ031] | > 30.00 µM | 6.47% | 72.7% | – |
| O=C(c1ccccc1Cl)c1nccc2c1[nH]c1ccc(C(=O)N3CCOCC3)cc12 [NBZ016] | > 30.00 µM | 10.5% | 37.4% | – |
| Cc1ccccc1NC(=O)c1ccc2[nH]c3c4[n+](ccc3c2c1)-c1ccccc1C4=O [NBZ036] | > 30.00 µM | 9.02% | 42.9% | – |
| O=C(c1ccccc1Br)c1nccc2c1[nH]c1ccc(Br)cc12 [NBZ003] | > 30.00 µM | 21.8% | 40.8% | – |
| O=C(Nc1ccccc1)c1ccc2[nH]c3c(C(=O)c4ccccc4Br)nccc3c2c1 [NBZ022] | > 30.00 µM | 46.8% | 17.4% | – |
| COc1ccc(C(=O)c2nccc3c2[nH]c2ccc(C(=O)O)cc23)cc1 [NBZ012] | > 30.00 µM | 7.66% | 21.9% | – |
| COc1ccc(NC(=O)c2ccc3[nH]c4c(C(=O)c5ccccc5Br)nccc4c3c2)cc1 [NBZ029] | > 30.00 µM | 27.9% | 30.3% | – |
| O=C(Nc1cccc2ccccc12)c1ccc2[nH]c3c4[n+](ccc3c2c1)-c1ccccc1C4=O [NBZ034] | – | 58.2% | – | – |
| CCCCNC(=O)c1ccc2[nH]c3c(C(=O)c4ccccc4Br)nccc3c2c1 [NBZ014] | > 30.00 µM | 19.7% | 2.09% | – |
| CC(=O)OC[C@H]1O[C@@H](OC(C)=O)[C@H](NC(=O)c2ccc3[nH]c4c(C(=O)c5ccccc5Br)nccc4c3c2)[C@@H](OC(C)=O)[C@@H]1OC(C)=O [NBZ019] | > 30.00 µM | 9.56% | 35.9% | – |
| O=C(Nc1cccc2ccccc12)c1ccc2[nH]c3c(C(=O)c4ccccc4Br)nccc3c2c1 [NBZ020] | > 30.00 µM | 8.15% | 7.22% | – |
| O=C(Nc1ccccc1)c1ccc2[nH]c3c(C(=O)c4ccccc4Cl)nccc3c2c1 [NBZ021] | > 30.00 µM | 11.4% | > 50% | 66.21% |
| Cc1ccc2[nH]c3c(C(=O)c4cccc(Br)c4)nccc3c2c1 [NBZ006] | > 30.00 µM | 13.1% | 33.3% | – |
